Experimental findings from ChEMBL document CHEMBL5303304, “EUbOPEN Chemogenomics Library - IncuCyte” (2023) are described below.

What all share (assay type): toxicity, cell-based
Series [1] has as its system HEK-293T. The series can be described thus: Incucyte cell viability with HEK293T. Particulars: human, 10 µM, compound concentration 10 uM.
In series [2] the test system is Fibroblast. In words: Incucyte cell viability with human fibroblast. Particulars: 10 µM, compound concentration 10 uM.
Series [3] concerns U2OS. In words: Incucyte cell viability with U2OS. The settings on record: human, 10 µM, compound concentration 10 uM.

The structures appear in SMILES notation.
Note: unitless GR value; below 1 slowed growth and below 0 cell loss.

As to `Fc1ccc(-c2nc(-c3c(F)cccc3F)[nH]c2-c2ccncc2)cc1`, the “Growth Rate” value in series [1] (0 h, replicate number 1) is listed as -0.47; in series [1] (0 h, replicate number 2), 0.65; in series [1] (6 h, replicate number 2), 0.27; in series [1] (12 h, replicate number 2) it was 0.5; in series [1] (18 h, replicate number 2), 0.62; in series [1] (24 h, replicate number 2) it was 0.68. Besides, the “Growth Rate” value was -0.99 in series [2] (0 h, replicate number 1); 0.29 in series [2] (0 h, replicate number 2); -1 in series [3] (0 h, replicate number 1); 0.97 in series [3] (18 h, replicate number 2); 0.76 in series [3] (24 h, replicate number 2).

Take `O=C(O)CCCCN(CCc1ccccc1OCc1ccc(CCc2ccccc2)cc1)Cc1ccc(C(=O)O)cc1`: the “Growth Rate” value is on record as 0.96 in series [1] (0 h, replicate number 1); 0.47 in series [1] (0 h, replicate number 2); 0.91 in series [1] (6 h, replicate number 1); 0.87 in series [1] (18 h, replicate number 1); 0.99 in series [1] (24 h, replicate number 1); -0.44 in series [2] (0 h, replicate number 2). The “Growth Rate” value in series [2] (6 h, replicate number 1) is given as 0.92; in series [2] (24 h, replicate number 1) it was 0.98; in series [3] (0 h, replicate number 1), 0.14; in series [3] (6 h, replicate number 1) it was 0.32; in series [3] (12 h, replicate number 1), 0.91; in series [3] (18 h, replicate number 1), 0.83. In addition, the “Growth Rate” value in series [3] (24 h, replicate number 1) is recorded as 0.86.

As to `Cc1nccc(COC(=O)N2C[C@@H]3[C@@H](CNC(=O)c4ccc5[nH]nnc5c4)[C@@H]3C2)n1` [BI 3017], the “Growth Rate” value in series [1] (0 h, replicate number 1) is listed as 0.2; in series [1] (0 h, replicate number 2), 0.4; in series [1] (6 h, replicate number 1), 0.95; in series [1] (24 h, replicate number 2), 0.99; in series [2] (18 h, replicate number 1), 0.93; in series [2] (18 h, replicate number 2), 0.73. Moreover, the “Growth Rate” value in series [2] (24 h, replicate number 2) is on record as 0.95; in series [3] (0 h, replicate number 1), 0.85; in series [3] (6 h, replicate number 1), 0.95; in series [3] (12 h, replicate number 2), 0.99; in series [3] (24 h, replicate number 1), 0.86.

In the case of `Cn1c(Nc2c(Cl)cccc2Cl)nc2ccc3nc[nH]c(=O)c3c21`, the “Growth Rate” value in series [1] (0 h, replicate number 2) was -1; in series [1] (6 h, replicate number 1), 0.08; in series [1] (6 h, replicate number 2), 0.03; in series [2] (6 h, replicate number 1), 0.64; in series [2] (6 h, replicate number 2), 0.1; in series [2] (12 h, replicate number 1), 0.65. Further, the “Growth Rate” value is on record as 0.35 in series [2] (12 h, replicate number 2); 0.71 in series [2] (18 h, replicate number 1); 0.42 in series [2] (18 h, replicate number 2); 0.51 in series [2] (24 h, replicate number 1); 0.33 in series [2] (24 h, replicate number 2); -0.24 in series [3] (0 h, replicate number 1). Further, the “Growth Rate” value in series [3] (0 h, replicate number 2) turned out to be 0.87; in series [3] (6 h, replicate number 1) it was 0.95; in series [3] (6 h, replicate number 2), 0.19; in series [3] (12 h, replicate number 1), 0.97; in series [3] (12 h, replicate number 2), 0.74; in series [3] (18 h, replicate number 1), 0.86. The “Growth Rate” value in series [3] (18 h, replicate number 2) worked out at 0.83; in series [3] (24 h, replicate number 1) it was 0.98; in series [3] (24 h, replicate number 2), 0.85.

As to `CC(C)CNc1nc(N2CCN(CC3CCCOC3)CC2)ncc1C(=O)NCc1ccccc1` (stereo unspecified), the “Growth Rate” value is reported as 0.68 in series [1] (0 h, replicate number 1); 0.81 in series [1] (6 h, replicate number 1); 0.95 in series [1] (6 h, replicate number 2); -0.99 in series [2] (0 h, replicate number 1); -1 in series [2] (6 h, replicate number 2); -0.95 in series [2] (12 h, replicate number 2). For the same molecule, the “Growth Rate” value in series [2] (18 h, replicate number 1) is -0.97; in series [2] (18 h, replicate number 2), -0.81; in series [2] (24 h, replicate number 1), -0.8; in series [2] (24 h, replicate number 2), -0.64; in series [3] (6 h, replicate number 1), 0.3; in series [3] (6 h, replicate number 2), 0.72. For the same molecule, the “Growth Rate” value in series [3] (12 h, replicate number 1) is 0.83; in series [3] (12 h, replicate number 2), 0.63; in series [3] (18 h, replicate number 1), 0.99; in series [3] (18 h, replicate number 2), 0.76; in series [3] (24 h, replicate number 2) it was 0.79.

`O=C(Nc1ccc(S(=O)(=O)Nc2nccs2)cc1)C(c1ccccc1)c1ccccc1`: the “Growth Rate” value in series [1] (0 h, replicate number 1) is reported as 0.71; in series [1] (6 h, replicate number 1), 0.94; in series [1] (6 h, replicate number 2), 0.52; in series [1] (18 h, replicate number 2), 0.82; in series [1] (24 h, replicate number 1), 0.88; in series [1] (24 h, replicate number 2) it was 0.9. Besides, the “Growth Rate” value in series [2] (0 h, replicate number 2) was -0.85; in series [2] (12 h, replicate number 2) it was 0.85; in series [2] (18 h, replicate number 1), 0.49; in series [3] (12 h, replicate number 1), 0.81; in series [3] (12 h, replicate number 2), 0.82; in series [3] (24 h, replicate number 1), 0.94.

With `Clc1ccc(-c2nc3sccn3c2/C=N/OCc2ccc(Cl)c(Cl)c2)cc1`, the “Growth Rate” value in series [1] (0 h, replicate number 1) was -0.74; in series [1] (0 h, replicate number 2), -0.64; in series [1] (6 h, replicate number 2), 1; in series [1] (12 h, replicate number 2) it was 1; in series [2] (0 h, replicate number 2) it was 0.32; in series [2] (6 h, replicate number 1), 0.02. The “Growth Rate” value in series [2] (12 h, replicate number 1) is listed as 0.58; in series [2] (18 h, replicate number 1), 0.63; in series [2] (24 h, replicate number 1) it was 0.85; in series [3] (0 h, replicate number 1) it was 0.48; in series [3] (6 h, replicate number 2), 0.91; in series [3] (12 h, replicate number 1), 0.92. Moreover, the “Growth Rate” value in series [3] (12 h, replicate number 2) stood at 0.89; in series [3] (18 h, replicate number 1) it was 0.87; in series [3] (18 h, replicate number 2), 0.95; in series [3] (24 h, replicate number 2), 0.93.

As for `CCN1CCN(Cc2ccc(Nc3ncc(F)c(-c4cc(F)c5nc(C)n(C(C)C)c5c4)n3)nc2)CC1.CS(=O)(=O)O`, the “Growth Rate” value in series [1] (0 h, replicate number 1) is on record as -0.17; in series [1] (0 h, replicate number 2), 0.21; in series [1] (6 h, replicate number 2), 0.64; in series [1] (12 h, replicate number 1), 0.36; in series [1] (12 h, replicate number 2), 0.38; in series [1] (18 h, replicate number 2) it was 0.6. Further, the “Growth Rate” value was 0.76 in series [1] (24 h, replicate number 2); 0.5 in series [2] (0 h, replicate number 1); 0.33 in series [2] (6 h, replicate number 1); -1 in series [2] (12 h, replicate number 1); 0.98 in series [2] (12 h, replicate number 2); 0.97 in series [3] (12 h, replicate number 2). Further, the “Growth Rate” value in series [3] (18 h, replicate number 2) came out at 0.98; in series [3] (24 h, replicate number 2) it was 1.

In the case of `O=c1cccc2n1C[C@@H]1CNC[C@H]2C1` [CYTISINICLINE], the “Growth Rate” value was determined as 0.9 in series [1] (6 h, replicate number 2); 0.46 in series [1] (12 h, replicate number 1); 0.75 in series [1] (12 h, replicate number 2); 0.79 in series [1] (18 h, replicate number 1); 0.92 in series [1] (18 h, replicate number 2); 0.88 in series [1] (24 h, replicate number 1). The “Growth Rate” value is on record as 0.99 in series [1] (24 h, replicate number 2); -0.4 in series [2] (6 h, replicate number 2); -0.82 in series [2] (12 h, replicate number 1); 0.99 in series [2] (12 h, replicate number 2); 0.88 in series [2] (18 h, replicate number 2); 0.51 in series [2] (24 h, replicate number 1). For the same molecule, the “Growth Rate” value in series [2] (24 h, replicate number 2) turned out to be 0.81; in series [3] (12 h, replicate number 1), 0.79; in series [3] (12 h, replicate number 2) it was 0.94; in series [3] (18 h, replicate number 1) it was 0.97; in series [3] (18 h, replicate number 2), 0.99; in series [3] (24 h, replicate number 1), 0.99.

Take `CO[C@H](C)CN1CC[C@@]2(C)c3ccc(O)cc3C[C@@H]1C2(C)C.Cl`: the “Growth Rate” value in series [1] (0 h, replicate number 1) amounted to 0.75; in series [1] (0 h, replicate number 2) it was 0.63; in series [2] (0 h, replicate number 2), 0.54; in series [2] (6 h, replicate number 1) it was 0.46; in series [2] (6 h, replicate number 2), 0.74; in series [2] (12 h, replicate number 1), 0.6. Besides, the “Growth Rate” value in series [2] (18 h, replicate number 1) is recorded as 0.79; in series [2] (24 h, replicate number 1), 0.96; in series [3] (0 h, replicate number 2), 0.71; in series [3] (6 h, replicate number 1), 0.63; in series [3] (6 h, replicate number 2), 0.94; in series [3] (12 h, replicate number 1), 0.93. Also, the “Growth Rate” value was 0.77 in series [3] (12 h, replicate number 2); 0.87 in series [3] (18 h, replicate number 1); 0.87 in series [3] (24 h, replicate number 1); 0.82 in series [3] (24 h, replicate number 2).

As for `CC(C)(C)c1ccc(-c2coc3ccc(-c4cn[nH]c4)nc23)cc1`, the “Growth Rate” value in series [1] (6 h, replicate number 1) was found to be 0.67; in series [1] (6 h, replicate number 2) it was 0.37; in series [1] (12 h, replicate number 2) it was 0.72; in series [1] (18 h, replicate number 2) it was 0.95; in series [1] (24 h, replicate number 2), 0.84; in series [2] (0 h, replicate number 2), 0.44. The “Growth Rate” value in series [2] (6 h, replicate number 1) is recorded as -0.96; in series [2] (6 h, replicate number 2) it was -0.95; in series [2] (12 h, replicate number 2), -0.62; in series [2] (18 h, replicate number 2), -0.24; in series [2] (24 h, replicate number 1), 0.94; in series [2] (24 h, replicate number 2) it was -0.11. In addition, the “Growth Rate” value in series [3] (0 h, replicate number 1) was 0.77; in series [3] (0 h, replicate number 2), -0.87; in series [3] (12 h, replicate number 1), 0.97; in series [3] (18 h, replicate number 1), 0.67; in series [3] (18 h, replicate number 2) it was 0.81; in series [3] (24 h, replicate number 1) it was 0.5. Besides, the “Growth Rate” value in series [3] (24 h, replicate number 2) turned out to be 0.63.

`CC(C)[C@H](CO)Nc1nc(Nc2ccc(C(=O)O)c(Cl)c2)c2ncn(C(C)C)c2n1` [PURVALANOL B]: the “Growth Rate” value in series [1] (18 h, replicate number 1) is reported as 0.9; in series [1] (24 h, replicate number 1), 1; in series [2] (0 h, replicate number 1) it was -0.93; in series [2] (18 h, replicate number 1) it was 0.88; in series [3] (0 h, replicate number 1), -0.96; in series [3] (0 h, replicate number 2), 0.8. Further, the “Growth Rate” value in series [3] (6 h, replicate number 2) came to 0.56; in series [3] (12 h, replicate number 2), 0.95.
